Results published in US7244765B2, “Guanylhydrazone salts, compositions, processes of making and methods of using” (Cytokine Pharmasciences, Inc, priority 2004, dated 2007).
Counter-ions that a name gives are not always drawn.

Test: Solubility test of Semapimod salts (sonication at room temperature, filtration, HPLC against a Semapimod-4 HCl/4 H2O standard)
Assay type: physicochemical
Conditions: for Solubility in H2O: sonicated at room temperature, Nylon syringe filter, HPLC vs standard from Semapimod-4 HCl/4 H2O
Procedure: The product isolated as Semapimod-2 HCl/4 H2O was added to ca. 2 mL of solvents (H2O, 5% Dextrose solution, PBS, and 0.9% NaCl solution), and was sonicated at room temperature until the solid suspended in the solution. The mixture was passed through a Nylon syringe filter, and then 0.5 mL of the filtrate was diluted with MeOH before injection into the HPLC. […] For reference purpose, the solubility of Semapimod-4 HCl/4 H2O was determined according to the previous procedure.
The Semapimod salts mentioned in the above table were subjected to solubility tests using the same procedure outlined above.

| SMILES | Solubility in 5% Dextrose (5% Dextrose solution, room temperature, HPLC vs standard) [mg/mL] | Solubility in H2O |
| --- | --- | --- |
| CC(=NNC(=N)N)c1cc(NC(=O)CCCCCCCCC(=O)Nc2cc(C(C)=NNC(=N)N)cc(C(C)=NNC(=N)N)c2)cc(C(C)=NNC(=N)N)c1.Cl.Cl.O.O.O.O [Semapimod-2 HCl/4 H2O] | 13.44 | ca. 9.54 mg/mL |
| C/C(=N\NC(=N)N)c1cc(NC(=O)CCCCCCCCC(=O)Nc2cc(/C(C)=N/NC(=N)N)cc(/C(C)=N/NC(=N)N)c2)cc(/C(C)=N/NC(=N)N)c1 [Semapimod-4 HCl/4 H2O, reference compound] |  | 14.15 mg/mL |
